We go through 1 compound from patent US8753570B2, “Structure, synthesis, and applications for oligo phenylene ethynylenes” (STC.UNM, priority 2008, dated 2014).

The experiment concerns Bacillus atrophaeus. Nature of the experiment: Dark and uv biocidal activity. It is filed as cell-based.

In the case of `C[N+](C)(C)CCCOc1ccc(C#Cc2ccc(C#Cc3ccc(OCCC[N+](C)(C)C)cc3)cc2)cc1` [S-OPE-EO], the killing under uv result (365 nm uv light, 30 minutes) is “almost the same level killing”. Besides, the “killing in the dark” value (dark, 6 hour exposure) is “several log kills”. The biocidal activity result (in the dark and upon uv irradiation) was “remarkable biocidal activity”.
